Test results: patent US12263139B2, “Use of cannabidiol in the treatment of tuberous sclerosis complex” (Jazz Pharmaceuticals Research UK Limited, priority 2017, dated 2025)

Experiments:
Miapaca = test: Drug combination assay (MTT, CalcuSyn) of Rad001 and CBD in Miapaca; type: cell-based, Homo sapiens
Experimental: For the study of the synergism between Rad001 and CBD on pancreatic cell lines Miapaca was tested, the cells were seeded in 96-multiwell plates at the density of 3.8 10^3 cells/well. After 24 hr incubation at 37° C., the cells were treated with different concentrations of Rad001 and CBD. Different molar ratios between two drugs in different sequences of administration were tested, (Rad001 for 48 h and CBD for 72 h or Rad001 for 72 h and CBD for 48 h and in co-administration for 72 h.
The proliferative response was estimated by colorimetric 3-(4,5 di-methylthiazol-2-yl)-2,5-diphenyltetrazolium bromide (MIT) test. MTT conversion to formazan by metabolically viable cells was monitored by spectrophotometer at an optical density of 570 nm. Each data point represents the average of three separate experiments with each experiment containing four wells. Drug combination studies were based on concentration-effect curves generated as a plot of the fraction of unaffected (surviving) cells versus drug concentration after treatment.
To explore the relative contribution of each agent to the synergism equi-active doses of […] were tested (IC50). Assessment of synergy was performed quantitating drug interaction by Calcusyn computer program (Biosoft, Ferguson, MO). Combination index (CI) values of <1, 1, and >1 indicate synergy, additivity and antagonism, respectively.
Dose reduction index (DRI) representing the measure of how much the dose of each drug in a combination may be reduced at a given effect level compared with the doses of each drug alone.
The effects of the pharmacological combination between CBD and RAD001 on the proliferation MIAPACA cell lines, using MTT assay were studied. The data obtained were processed with dedicated program, CalcuSyn (Chou and Talalay, Biosoft, Oregon, USA), which measures synergism.
The specific contribution of CBD and Rad001 on the cytotoxic effect of the combination of drugs was analyzed by calculating the potentiation factor (PF) defined as the ratio of the IC50 of either CBD or Rad001 alone to the IC50 of CBD and Rad001 in combination. A higher PF indicates a greater cytotoxicity.

AML 621-101 cells = test: Tumour spheroid growth (soft agar) assay in AML 621-101 cells; type: cell-based; conditions: 10 μM CBD
Experimental: (i) Angiomyolipomas (AML) cells derived from a Tuberous Sclerosis Complex patient (621-101 cell-line), with a known loss of function of TSC2. […] Zeocin™ was purchased from LifeTechnologies (cat no: R25001) and was used to originally generate the stable cell line (by Prof. Lisa Henske) over two weeks of Zeocin™ selection and then for continued maintenance of the cells in tissue culture (at 100 μg/ml).
(§1) The stock concentration of CBD was made to 20 mM in dimethyl sulfoxide (DMSO). CBD was added to culture media to final concentrations of either 5 μM or 10 μM, as indicated). The final concentration of the DMSO in the cell culture medium was at a maximum level of 0.05% (v/v).
Two-layered soft agar assays were carried out in 6-well plates. All cell lines were plated in complete DMEM media in 0.35% (v/v) agar at (3*10^5) over a 0.6% (v/v) agar layer. The agar was then overlaid with complete DMEM media and spheroids were grown for 14 days at 37° C. in 5% CO2. Media were changed twice a week and new drug was added to media. Pictures were taken using an inverted AMG EVOS microscope equipped with an Olympus camera. Volume of tumour spheroids was measured using ImageJ software.

Miapaca cells = test: MTT cell viability assay in Miapaca; type: cell-based; conditions: Homo sapiens, MIA PaCa-2, 72 h, FIG. 6B, read-out: concentration at which 50% growth inhibition was reached
Experimental: MIAPACA is a Homo sapiens pancreas carcinoma. This is a hypotriploid human cell line.
Cell viability was analyzed by the MTT [3-(4,5-dimethylthiazol-2-yl)-2,5-diphenyl tetrazolium bromide] assay. Pancreatic cancer cells were seeded onto each well of a 96-well plate. After 72 h of treatment with CBD, MTT solution 5 mg/ml in PBS was added to each well. The plates were then incubated at 37° C. for an additional 4 h to allow MTT to form formazan crystals by reacting with metabolically active cells. The formazan crystals were solubilized in a 1N isopropanol/HCl 10% solution at 37° C., on a shaking table for 20 min. The absorbance values of the solution in each well were measured at 570 nm using a microplate reader. Cell viability was determined by the formula: cell viability (%)=(absorbance of the treated wells−absorbance of the blank control wells)/(absorbance of the negative control wells−absorbance of the blank control wells)×100%. All MTT experiments were performed in triplicate and repeated at least three times.

Tsc2−/− MEFs = test: Transwell cell migration assay in Tsc2−/− MEFs; type: cell-based, mouse; conditions: Tsc2+/+ as control cell; reduction not significant; FIG. 2 (A)
Experimental: (ii) Tsc2−/− p53−/− and Tsc2+/+p53−/− mouse embryonic fibroblast (MEF) cell lines (now referred to as Tsc2−/− and Tsc2+/+, respectively).
Tsc2−/− and Tsc2+/+ cell lines were cultured and maintained in DMEM supplemented with 10% (v/v) FBS and 1% (v/v) penicillin-streptomycin in a humidified incubator (5% CO2 at 37° C.). The AML −/− cell lines were cultured and maintained in DMEM supplemented with 15% (v/v) FBS and 1% (v/v) penicillin-streptomycin in a humidified incubator (5% CO2 at 37° C.). For hypoxia, cells were put into a Binder CB150 hypoxic chamber set at 1% 02 for the indicated time points
as §1
Transwell permeable supports with 6.5 mm diameter inserts, 8.0 μm pore size, and a polycarbonate membrane were used to perform migration assays. Cells were grown in a 75-cm2 flask with standard medium (10% (v/v) FBS) until confluent. […] Cells were counted using a haemocytometer. […] The percentage of adherent cells was then determined by fixing the cells with methanol and acetone (1:1) for 20 minutes at 20° C. […] Crystal Violet stained cells were eluted with 1% (w/v) SDS and the absorbance was read at 550 nm on a Genova MK3 Lifescience.

C=C(C)[C@@H]1CCC(C)=C[C@H]1c1c(O)cc(CCCCC)cc1O [CBD, Cannabidiol]
IC50 (Miapaca; Homo sapiens, MIA PaCa-2, Miapaca, 50% effect level, read-out: Dose of drug alone): 3.6 µM
DRI50 (Miapaca; Miapaca, Rad/CBD combination, dose reduction index): CBD 7.1
potentiation factor (PF) (Miapaca; ratio of IC50 alone to IC50 of CBD and Rad001 in combination): 8
tumour spheroid formation (AML 621-101 cells): sufficient to block tumour spheroid formation
IC50 (Miapaca cells): 15 µM
cell migration (Tsc2−/− MEFs): reduce cell migration to control level
